Conditions: 10 mg/kg adriamycin, intravenous (tail vein) on Days 8, 10 and 12; compared with Vehicle; FIG. 1(A)
Procedure: The presence of weight loss as a side effect of adriamycin encapsulated in the liposome was assessed. […] Each of the drugs was intravenously (tail vein) administered to each mouse group on Days 8, 10 and 12 following the sensitization day (Day 0) (total of three doses). […] The 10 mg/kg (weight) adriamycin is a dose that gives medicinal benefits as a cancer chemotherapeutic agent.
Meanwhile, weight loss as a side effect was also assessed.
Each of the drugs was intravenously (tail vein) administered to each mouse group on Days 8, 10 and 12 following the sensitization day (Day 0) (total of three doses).

COc1cccc2c1C(=O)c1c(O)c3c(c(O)c1C2=O)C[C@@](O)(C(=O)CO)C[C@@H]3O[C@H]1C[C@H](N)[C@H](O)[C@H](C)O1 [adriamycin]
weight loss as a side effect: obvious weight loss
